For experiment [1], the system named is Phosphatidyl inositol-specific phospholipase C. Description: Phosphatidyl inositol-specific phospholipase C assay with sonicated human platelets. It counts as biochemical. On the procedure:
A. Protocol--Phosphatidyl inositol-specific phospholipase C assays. The assays were performed as follows: A mixture of PI (Sigma) and (^3 H-inositol)-PI in CHCl3 are blown to dryness under N2 and sonicated into a buffer containing DOC and CaCl2 so that the final concentrations in each 200 λ assay are:
0.5 mg/ml DOC containing an appropriate amount of an active compound
in 50 mM Hepes, 100 mM NaCl, 0.5 mg/ml BSA pH 7.
An aliquot of sonicated human platelets, 5×10^9 /ml, is added; the reaction is stopped after 10 minutes with a chloroform/methanol/H2 O solution and the upper water phase is counted to detect water-soluble inositol counts. The pH was checked during each assay using pH paper to verify that none of the compounds affected this parameter.

The test system of experiment [2] is phospholipase C. As to conditions: background statement; cited from earlier work.
The mark [3] stands for this setting: Table II, Concentration 0.20 mM.

Data on 14 molecules can be found in US4515722A, “Phosphatidyl inositol analogs useful as anti-inflammatory/analgesic agents” (Merck & Co., Inc., priority 1982, dated 1985).

Molecules are shown by their SMILES.

A word on the % Inhibition: it is the drop in the measured response relative to a control, in per cent. Take `CCCCCCCCCCCCCCCCCCP(=O)(O)O[C@H]1[C@H](O)[C@@H](O)[C@H](OP(=O)(O)CCCCCCCCCCCCCCCCCC)[C@@H](O)[C@H]1O` (relative stereo) [1,4-di(octadecylphosphonyl)-myo-inositol]: the “% Inhibition” value in experiment [1] (Table II, Concentration 0.033 mM) was 18%; in experiment [1] (Table II, Concentration 0.33 mM), 37%.
For the molecule `CCCCCCCCCCCCP(=O)(O)O[C@@H]1[C@H](O)[C@H](O)[C@@H](O)[C@H](O)[C@H]1O` (relative stereo) [1-O--(dodecylphosphonyl)-myo-inositol], the “% Inhibition” value is on record as 51% in experiment [1] (setting [3]) and 82% in experiment [1] (Table II, Concentration 2.0 mM).
With `CCCCCCCCCCCCCCCCCCP(=O)(O)O[C@@H]1[C@H](O)[C@H](O)[C@@H](O)[C@H](O)[C@H]1O` (relative stereo) [1-O--(octadecylphosphonyl)-myo-inositol], the “% Inhibition” value in experiment [1] (Table II, Concentration 0.105 mM) amounted to 12%; in experiment [1] (Table II, Concentration 1.05 mM) it was 66%.
Regarding `CCCCCCCCCCCCCCCCCCP(=O)(O)O[C@H]1[C@H](O)[C@@H](O)[C@H](O)[C@@H](O)[C@]1(O)CO` (relative stereo) [DL-2-C--hydroxymethyl-1-O--octadecanephosphonyl-myo-inositol], the “% Inhibition” value worked out at 51% in experiment [1] (Table II, Concentration 0.115 mM) and 89% in experiment [1] (Table II, Concentration 1.15 mM).
Regarding `CCCCCCCCCCCCCCCCCCP(=O)(O)O[C@H]1[C@H](O)[C@@H](O)[C@H](O)[C@@H](O)[C@H]1OC` (relative stereo) [DL-2-O--methyl-1-O--(octadecylphosphonyl)-myo-inositol], the “% Inhibition” value was 53% in experiment [1] (Table II, Concentration 0.122 mM) and 83% in experiment [1] (Table II, Concentration 1.22 mM).
Consider `CCCCCCCCCCCCP(=O)(O)O[C@H]1[C@H](O)[C@@H](O)[C@H](OP(=O)(O)CCCCCCCCCCCC)[C@@H](O)[C@H]1O` (relative stereo) [Example 20, 1,4-di-O-(dodecylphosphonyl)myo-inositol], for which the “% Inhibition” value in experiment [1] (Table II, Concentration 0.043 mM) was 20%; in experiment [1] (Table II, Concentration 0.432 mM), 64%.
As to `CCCCCCCCCCCCCCCCCCP(=O)(O)OC1C(O)C(O)C(O)C(O)C1O` (stereo not shown) [5-O--(octadecylphosphonyl)-myo-inositol], the “% Inhibition” value is listed as 27% in experiment [1] (Table II, Concentration 0.050 mM); 60% in experiment [1] (setting [3]); 81% in experiment [1] (Table II, Concentration 1.00 mM).
As to `CCCCCCCC(=O)OCC(CCP(=O)(OC)OC1C(O)C(O)C(O)C(O)C1O)OC(=O)CCCCCCC` (stereo not shown) [(M) (M) CH3], the “% Inhibition” value was determined as 50% in experiment [1] (Table I, Conc. 0.5 mM) and 72% in experiment [1] (Table I, Conc. 1.0 mM).
On to `CCCCCCCCCC(=O)OC(CCP(=O)(O)OC1C(O)C(O)C(O)C(O)C1O)COC(=O)Cc1ccc(-c2ccccc2)cc1` (stereo not shown) [.0.-.0.CH2 CO, 3-Decanoyloxy-4-(p-diphenylacetyloxy)-butyl-1-phosphonyl-myo-inositol], for which the “% Inhibition” value in experiment [1] (Table I, Conc. 0.5 mM) stood at 61%; in experiment [1] (Table I, Conc. 1.0 mM), 75%.
In the case of `CCCCCCCCCC(=O)OC(CCP(=O)(O)OC1C(O)C(O)C(O)C(O)C1O)COC(=O)CCc1ccc(Oc2ccccc2)cc1` (stereo not shown) [.0.O.0.CH2 CH2 CO], the “% Inhibition” value stood at 47% in experiment [1] (Table I, Conc. 0.1 mM); 66% in experiment [1] (Table I, Conc. 0.5 mM); 76% in experiment [1] (Table I, Conc. 1.0 mM).
Take `CCCCCCCC(=O)OCC(CCP(=O)(O)OC1C(O)C(O)C(O)C(O)C1O)OC(=O)CCCCCCC` (stereo not shown) [n-C7 H15 CO, 3,4-Dioctanoyloxybutyl-1-phosphonyl-myo-inositol]: the “% Inhibition” value in experiment [1] (Table I, Conc. 1.0 mM) was found to be 64%.
Still for that read-out and setting: the figure for `CCCCCCCCCC(=O)OCC(CCP(=O)(O)OC1C(O)C(O)C(O)C(O)C1O)OC(=O)CCCCCCCCC` (stereo not shown) [n-C9 H19 CO, 3,4-Didecanoyloxybutyl-1-phosphonyl-myo-inositol] is 68%.
For `CCCCCCCCCCCCCCCC(=O)OCC(CCP(=O)(O)OC1C(O)C(O)C(O)C(O)C1O)OC(=O)CCCCCCCCCCCCCCC` (stereo not shown) [n-C15 H31 CO, 3,4-Dipalmitoyloxybutyl-1-phosphonyl-myo-inositol], the “% Inhibition” value in experiment [1] (Table I, Conc. 0.05 mM) is 37%; in experiment [1] (Table I, Conc. 0.5 mM) it was 82%; in experiment [1] (Table I, Conc. 1.0 mM) it was 84%.
On to `c1ccc2c(c1)Nc1ccccc1S2` [phenothiazine], for which the “inhibition of phospholipase C” value in experiment [2] is given as “inhibited”.
